# ChEMBL document CHEMBL1147922, “Tetrahydroindazole inhibitors of bacterial type II topoisomerases. Part 2: SAR development and potency against multidrug-resistant strains” (Bioorg Med Chem Lett, 2007)
# What was measured:
# [1] = Inhibition of bacterial DNA gyrase
# Escherichia coli = test: Antibacterial activity against Escherichia coli KL16; format: functional
# Staphylococcus aureus [2] = test: Antibacterial activity against Staphylococcus aureus ATCC 13709; format: functional
# Streptococcus pneumoniae = test: Antibacterial activity against Streptococcus pneumoniae ATCC 49619; format: functional
# [3] = Inhibition of bacterial DNA topoisomerase 4
# Staphylococcus aureus [4] = test: Antibacterial activity against ciprofloxacin resistant methicillin resistant Staphylococcus aureus OC5273; format: functional
# Staphylococcus aureus [5] = test: Antibacterial activity against ciprofloxacin resistant methicillin resistant Staphylococcus aureus OC3946; format: functional
# Staphylococcus aureus [6] = test: Antibacterial activity against ciprofloxacin resistant methicillin resistant Staphylococcus aureus OC4159; format: functional
# Staphylococcus aureus [7] = test: Antibacterial activity against ciprofloxacin resistant methicillin resistant Staphylococcus aureus OC4222; format: functional
# Staphylococcus aureus [8] = test: Antibacterial activity against quinolone susceptible methicillin resistant Staphylococcus aureus OC2878; format: functional
Structure (SMILES),IC50 [1],MIC (Escherichia coli),MIC (Staphylococcus aureus [2]),MIC (Streptococcus pneumoniae),IC50 [3],MIC (Staphylococcus aureus [4]),MIC (Staphylococcus aureus [5]),MIC (Staphylococcus aureus [6]),MIC (Staphylococcus aureus [7]),MIC (Staphylococcus aureus [8])
COc1ccc2nccc(-n3cc4c(n3)CCC(NC(=O)c3cc5c(cc3Br)SCC(=O)N5)C4)c2n1 (configuration not stated),0.25 µg/mL,2 µg/mL,0.125 µg/mL,2 µg/mL,0.25 µg/mL,–,–,–,–,–
COc1ccc2nccc(-n3cc4c(n3)CCC(NC(=O)c3ccc5c(c3)OCCO5)C4)c2n1 (configuration not stated),> 32 µg/mL,> 128 µg/mL,0.5 µg/mL,8 µg/mL,> 1 µg/mL,–,–,–,–,–
COc1ccc2nccc(-n3cc4c(n3)CCC(NC(=O)c3cc5c(cc3C(F)(F)F)SCC(=O)N5)C4)c2n1 (configuration not stated),0.25 µg/mL,4 µg/mL,0.125 µg/mL,8 µg/mL,–,–,–,–,–,–
COc1ccc2nccc(-n3cc4c(n3)CCC(NCc3ccc5c(c3)OCO5)C4)c2n1 (configuration not stated),0.25 µg/mL,32 µg/mL,0.5 µg/mL,2 µg/mL,0.25 µg/mL,–,–,–,–,–
COc1ccc2nccc(-n3cc4c(n3)CCC(NCc3ccc5c(c3)OCCO5)C4)c2c1 (configuration not stated),2 µg/mL,128 µg/mL,0.5 µg/mL,1 µg/mL,0.06 µg/mL,1 µg/mL,0.5 µg/mL,16 µg/mL,16 µg/mL,0.5 µg/mL
O=C1CSc2ccc(C(=O)NC3CCc4nn(-c5cccc6ccccc56)cc4C3)cc2N1 (configuration not stated),2 µg/mL,> 128 µg/mL,0.5 µg/mL,8 µg/mL,0.125 µg/mL,–,–,–,–,–
COc1ccc2nccc(-n3cc4c(n3)CCC(NC(=O)/C=C/c3ccccc3)C4)c2c1 (configuration not stated),16 µg/mL,–,1 µg/mL,4 µg/mL,0.5 µg/mL,–,–,–,–,–
COc1ccc2nccc(-n3cc4c(n3)CCC(NCc3ccc5c(c3)NC(=O)CS5)C4)c2c1 (configuration not stated),0.06 µg/mL,2 µg/mL,0.5 µg/mL,2 µg/mL,0.16 µg/mL,0.5 µg/mL,0.25 µg/mL,0.25 µg/mL,0.25 µg/mL,0.5 µg/mL
COc1ccc2nccc(-n3cc4c(n3)CCC(NC(=O)c3cc5c(cc3Cl)SCC(=O)N5)C4)c2n1 (configuration not stated),0.12 µg/mL,2 µg/mL,< 0.125 µg/mL,4 µg/mL,–,–,–,–,–,–
COc1ccc2nccc(-n3cc4c(n3)CCC(NC(=O)c3cc5c(cc3Br)SCC(=O)N5)C4)c2c1 (configuration not stated),0.5 µg/mL,2 µg/mL,0.125 µg/mL,2 µg/mL,0.125 µg/mL,–,–,–,–,–
COc1ccc2nccc(-n3cc4c(n3)CCC(NC(=O)c3cc5c(cc3F)SCC(=O)N5)C4)c2n1 (configuration not stated),0.12 µg/mL,128 µg/mL,0.25 µg/mL,2 µg/mL,0.125 µg/mL,0.031 µg/mL,0.007 µg/mL,0.007 µg/mL,0.015 µg/mL,0.031 µg/mL
CCOC(=O)c1cc2c(cc1C(=O)NC1CCc3nn(-c4ccnc5ccc(OC)nc45)cc3C1)NC(=O)CS2 (configuration not stated),–,> 16 µg/mL,0.5 µg/mL,> 16 µg/mL,–,–,–,–,–,–
COc1ccc2nccc(-n3cc4c(n3)CCC(NC/C=C/c3ccccc3)C4)c2n1 (configuration not stated),0.12 µg/mL,–,0.06 µg/mL,< 0.125 µg/mL,< 0.015 µg/mL,0.125 µg/mL,0.062 µg/mL,0.062 µg/mL,0.062 µg/mL,0.125 µg/mL
COc1ccc2nccc(-n3cc4c(n3)CCC(NC(=O)c3cc5c(cc3C)SCC(=O)N5)C4)c2c1 (configuration not stated),–,8 µg/mL,0.5 µg/mL,16 µg/mL,–,–,–,–,–,–
COc1ccc2nccc(-n3cc4c(n3)CCC(NC(=O)c3cc5c(cc3C(F)(F)F)SCC(=O)N5)C4)c2c1 (configuration not stated),1 µg/mL,8 µg/mL,0.125 µg/mL,8 µg/mL,0.25 µg/mL,–,–,–,–,–
COc1ccc2nccc(-n3cc4c(n3)CCC(NC(=O)c3cc5c(cc3C)SCC(=O)N5)C4)c2n1 (configuration not stated),–,> 16 µg/mL,0.25 µg/mL,> 16 µg/mL,–,–,–,–,–,–
COc1ccc2nccc(-n3cc4c(n3)CCC(NC(=O)c3cc5c(cc3C(=O)O)SCC(=O)N5)C4)c2n1 (configuration not stated),–,> 16 µg/mL,0.5 µg/mL,16 µg/mL,–,–,–,–,–,–
COc1ccc2nccc(-n3cc4c(n3)CCC(NC(=O)c3ccc(C)c([N+](=O)[O-])c3)C4)c2c1 (configuration not stated),> 16 µg/mL,–,0.25 µg/mL,4 µg/mL,–,–,–,–,–,–
O=C(O)c1cn(C2CC2)c2cc(N3CCNCC3)c(F)cc2c1=O [CIPROFLOXACIN],–,–,0.25 µg/mL,–,–,–,–,–,–,–
COc1ccc2nccc(-n3cc4c(n3)CCC(NCc3ccc5c(n3)NC(=O)CO5)C4)c2c1 (configuration not stated),0.06 µg/mL,2 µg/mL,1 µg/mL,2 µg/mL,0.016 µg/mL,–,–,–,–,–
COc1ccc2nccc(-n3cc4c(n3)CCC(NC(=O)c3c(F)cc5c(c3F)NC(=O)CS5)C4)c2n1 (configuration not stated),1 µg/mL,> 128 µg/mL,0.125 µg/mL,4 µg/mL,–,–,–,–,–,–
COc1ccc2nccc(-n3cc4c(n3)CCC(NCCCc3ccccc3)C4)c2n1 (configuration not stated),0.8 µg/mL,–,0.25 µg/mL,< 0.125 µg/mL,–,–,–,–,–,–
COc1ccc2nccc(-n3cc4c(n3)CCC(NCc3ccc5c(c3)OCCCO5)C4)c2n1 (configuration not stated),4 µg/mL,> 128 µg/mL,1 µg/mL,4 µg/mL,1 µg/mL,–,–,–,–,–

Structure (SMILES),IC50 [1],MIC (Escherichia coli),MIC (Staphylococcus aureus [2]),MIC (Streptococcus pneumoniae),IC50 [3],MIC (Staphylococcus aureus [4]),MIC (Staphylococcus aureus [5]),MIC (Staphylococcus aureus [6]),MIC (Staphylococcus aureus [7]),MIC (Staphylococcus aureus [8])
COc1ccc2nccc(-n3cc4c(n3)CCC(NC(=O)c3ccc5c(c3)NC(=O)CS5)C4)c2c1 (configuration not stated),0.12 µg/mL,4 µg/mL,0.25 µg/mL,2 µg/mL,0.125 µg/mL,0.25 µg/mL,0.015 µg/mL,0.031 µg/mL,0.062 µg/mL,0.125 µg/mL
COc1ccc2nccc(-n3cc4c(n3)CCC(NCc3ccc5c(n3)NC(=O)CO5)C4)c2n1 (configuration not stated),< 0.125 µg/mL,2 µg/mL,0.25 µg/mL,2 µg/mL,0.016 µg/mL,–,–,–,–,–
COc1ccc2nccc(-n3cc4c(n3)CCC(NC(=O)c3ccc5c(c3)NC(=O)CO5)C4)c2n1 (configuration not stated),1 µg/mL,4 µg/mL,0.125 µg/mL,8 µg/mL,0.25 µg/mL,–,–,–,–,–
COc1ccc2nccc(-n3cc4c(n3)CCC(NC(=O)c3cc5c(cc3Cl)SCC(=O)N5)C4)c2c1 (configuration not stated),0.5 µg/mL,2 µg/mL,< 0.125 µg/mL,2 µg/mL,–,–,–,–,–,–
COc1ccc2nccc(-n3cc4c(n3)CCC(NC(=O)c3cc(F)c(Cl)cc3Cl)C4)c2c1 (configuration not stated),–,–,0.25 µg/mL,8 µg/mL,–,–,–,–,–,–
O=C1CSc2ccc(C(=O)NC3CCc4nn(-c5ccnc6cc(Cl)ccc56)cc4C3)cc2N1 (configuration not stated),16 µg/mL,> 128 µg/mL,2 µg/mL,> 128 µg/mL,> 0.5 µg/mL,–,–,–,–,–
COc1ccc2nccc(-n3cc4c(n3)CCC(NC(=O)c3ccc5c(c3)OCCO5)C4)c2c1 (configuration not stated),4 µg/mL,> 128 µg/mL,2 µg/mL,8 µg/mL,–,–,–,–,–,–
COc1ccc2nccc(-n3cc4c(n3)CCC(NC(=O)c3ccc(C)c([N+](=O)[O-])c3)C4)c2n1 (configuration not stated),–,–,0.25 µg/mL,8 µg/mL,–,–,–,–,–,–
COc1ccc2nccc(-n3cc4c(n3)CCC(NC(=O)c3cc5ccccc5[nH]3)C4)c2c1 (configuration not stated),> 16 µg/mL,> 128 µg/mL,1 µg/mL,8 µg/mL,1 µg/mL,–,–,–,–,–
CCOC(=O)c1cc2c(cc1C(=O)NC1CCc3nn(-c4ccnc5ccc(OC)cc45)cc3C1)NC(=O)CS2 (configuration not stated),–,> 16 µg/mL,2 µg/mL,> 16 µg/mL,–,–,–,–,–,–
COc1ccc2nccc(-n3cc4c(n3)CCC(NCc3ccc5c(c3)OCCO5)C4)c2n1 (configuration not stated),1 µg/mL,32 µg/mL,0.03 µg/mL,0.5 µg/mL,0.25 µg/mL,–,–,–,–,–
COc1ccc2nccc(-n3cc4c(n3)CCC(NC(=O)c3ccc5c(c3)NC(=O)CO5)C4)c2c1 (configuration not stated),0.25 µg/mL,2 µg/mL,0.125 µg/mL,4 µg/mL,0.5 µg/mL,–,–,–,–,–
COc1ccc2nccc(-n3cc4c(n3)CCC(NC(=O)c3cc5c(cc3OC)SCC(=O)N5)C4)c2n1 (configuration not stated),–,> 16 µg/mL,2 µg/mL,16 µg/mL,–,–,–,–,–,–
COc1ccc2nccc(-n3cc4c(n3)CCC(NC(=O)c3c(F)cc5c(c3F)NC(=O)CS5)C4)c2c1 (configuration not stated),1 µg/mL,8 µg/mL,0.125 µg/mL,1 µg/mL,–,–,–,–,–,–
COc1ccc2nccc(-n3cc4c(n3)CCC(NC(=O)c3cc5c(cc3C(=O)O)SCC(=O)N5)C4)c2c1 (configuration not stated),–,> 16 µg/mL,1 µg/mL,> 16 µg/mL,–,–,–,–,–,–
COc1ccc2nccc(-n3cc4c(n3)CCC(NC(=O)/C=C/c3ccccc3)C4)c2n1 (configuration not stated),8 µg/mL,–,0.25 µg/mL,2 µg/mL,–,–,–,–,–,–
C[C@@H]1CN(c2c(F)c(N)c3c(=O)c(C(=O)O)cn(C4CC4)c3c2F)C[C@H](C)N1 [SPARFLOXACIN],–,–,0.062 µg/mL,–,–,16 µg/mL,4 µg/mL,16 µg/mL,8 µg/mL,0.062 µg/mL
CCn1cc(C(=O)O)c(=O)c2cc(F)c(N3CCNCC3)cc21 [NORFLOXACIN],–,–,1 µg/mL,–,–,> 128 µg/mL,128 µg/mL,> 128 µg/mL,> 128 µg/mL,1 µg/mL
COc1ccc2nccc(-n3cc4c(n3)CCC(NCc3ccc5c(c3)NCCS5)C4)c2c1 (configuration not stated),0.5 µg/mL,8 µg/mL,0.5 µg/mL,0.5 µg/mL,0.0625 µg/mL,–,–,–,–,–
Cc1cc(-n2cc3c(n2)CCC(NC(=O)c2ccc4c(c2)NC(=O)CS4)C3)c2cc(F)ccc2n1 (configuration not stated),4 µg/mL,> 128 µg/mL,8 µg/mL,> 128 µg/mL,0.5 µg/mL,–,–,–,–,–
COc1ccc2nccc(-n3cc4c(n3)CCC(NCc3ccc5c(c3)NCCS5)C4)c2n1 (configuration not stated),0.5 µg/mL,8 µg/mL,< 0.125 µg/mL,0.25 µg/mL,0.03 µg/mL,–,–,–,–,–
COc1ccc2nccc(-n3cc4c(n3)CCC(NC/C=C/c3ccccc3)C4)c2c1 (configuration not stated),4 µg/mL,–,0.5 µg/mL,1 µg/mL,–,1 µg/mL,0.5 µg/mL,0.5 µg/mL,0.25 µg/mL,0.5 µg/mL
